Source: patent US12594258B2, “Inhibitors of MHC-I Nef downmodulation for treating HIV” (priority 2019, dated 2026)

Key:
[1] = system: lysosomal pH in human monocyte-derive macrophages (MDMs); assay: Lysosensor Yellow/Blue dextran analysis of lysosomal pH in MDMs; assay type: cell-based; conditions: 1 hour, read-out: EC50 for lysosome neutralization
Protocol: To measure the lysosomal pH in human monocyte-derive macrophages (MDMs), MDMs adhered to 24-well plates were exposed to 500 μg/mL Lysosensor Yellow/Blue dextran, 10,000 MW (ThermoFisher, L22460) in R10 for 24 hours. MDMs were then exposed to plecomacrolides for 1 hour and harvested with 0.05% Trypsin-EDTA (Gibco 25300054). Cells were washed twice in FACS buffer, and analyzed on a MoFlo Astrios flow cytometer, with blue signal excited from a 354 nm laser and yellow signal excited from a 405 nm laser. A standard curve was generated by resuspending MDMs in equilibration buffers of known pH as previously described. The ratio of blue:yellow fluorescence intensity was calculated for each cell, the median blue:yellow ratio for the cell population for each condition was obtained, and the lysosomal pH in MDMs was calculated for each condition using the standard curve.
Lysosensor Yellow/Blue Dextran Analysis of Lysosomal pH. To measure the lysosomal pH in human MDMs, MDMs adhered to 24-well plates were exposed to 500 μg/mL Lysosensor Yellow/Blue dextran, 10,000 molecular weight (MVV) in R10 for 24 h. MDMs were then exposed to plecomacrolides for 1 h and harvested with 0.05% Trypsin-(ethylenedinitrilo)tetraacetic acid (EDTA). Cells were washed twice in FACS buffer, and analyzed on a flow cytometer, with blue signal excited from a 354-nm laser and yellow signal excited from a 405-nm laser. A standard curve was generated by resuspending MDMs in equilibration buffers of known pH. The ratio of blue:yellow fluorescence intensity was calculated for each cell, the median blue:yellow ratio for the cell population for each condition was obtained, and the lysosomal pH in MDMs was calculated for each condition using the standard curve.

[2] = system: HIV-infected primary CD4+ T cells; assay: Flow cytometric CTL killing assay; assay type: cell-based, human
From the text: CTL clones were isolated by limiting dilution from HIV-1- infected individuals. […] The CTL clones were maintained in culture with periodic re-stimulation as previously described except for the following changes; CTL clones were stimulated with anti-CD3 clone 12F6 (NIH AIDS Reagent Program) and cultured with IL-2 (NIH AIDS Reagent Program, Hoffman-La Roche). Peripheral blood mononuclear feeder cells were isolated from leukopaks (New York Blood Center) and X-irradiated with […] in R10 medium. Irradiations were performed using a Kimtron IC 225(Kimtron Medical) at a dose rate of approximately 2 Gy/min in the University of Michigan Comprehensive Cancer Center Experimental Irradiation Core (Ann Arbor, Mich.). CTL clones 115B15 and 161JXA14 both recognize HIV gag amino acids 77-85; SLYNTVATL presented by MHC-I HLA-A2 (71).
CTL elimination assays were performed as previously described with the following modifications: 72 hours post-infection primary CD4^+ T cells were stained with CellTracker Green (Fisher, c7025) according to manufacturer's protocol and treated with 0.5 nM CMA or solvent control for 24 hours. 50,000 target cells were used per condition, and following the 4 hours of co-culture, the cells were stained with DAPI as a viability dye in addition to anti-PLAP and BB7.2 antibodies. […]

[3] = system: Nef alleles from HIV clades A, B, C, D, F, and F/B and SIV; assay: Nef alleles of diverse HIV clades and SIV (MSCV-IRES-GFP) in CEM cells expressing MHC-I alleles; assay type: cell-based
Protocol: (ii) MSCV: Murine stem cell virus internal ribosome entry site GFP (pMIG) constructs containing various nef alleles were generated as previously described. Retroviral supernatants were prepared using BOSC cells transfected with the pMIG constructs, the retrovirus packaging vector pCL-Eco (65) and pHCMV-G using PEI as described above for HIV. Viral supernatants were collected 48 h post-transfection, clarified by centrifugation, stored at −80° C., and transductions were performed as described for HIV constructs.

SMILES: C/C=C/[C@H]1O[C@@](O)([C@@H](C)[C@H](O)[C@H](C)[C@H]2OC(=O)/C(OC)=C/C(C)=C/[C@@H](C)[C@@H](O)[C@@H](CC)[C@@H](O)[C@H](C)C/C(C)=C/C=C/[C@@H]2OC)C[C@@H](O[C@H]2C[C@@H](O)[C@H](OC(N)=O)[C@@H](C)O2)[C@@H]1C [CMA, concanamycin A]
- EC50 [1]: 12.7 nM
- CTL-mediated elimination of PLAP+ cells infected with Nef-competent virus ([2]; 0.5 nM, 24 hours): efficiently eliminated by CTLs
- clearance of SL9 peptide-pulsed target cells by anti-HIV CTLs ([2]; in the presence of 0.5 nM): No change in the clearance
- surface expression of HA-tagged HLA-A*02, HLA-B*08, HLA-B*27, HLA-B*57 ([3]; CEM cells, each Nef allele): restored MHC-I surface expression in every context
- HLA-A2 expression in cells expressing diverse nef alleles ([3]; CEM-A2 cells): restored expression of HLA-A2 in cells expressing each nef allele
